We go through three molecules from PubChem BioAssay (NCI).

Among the test systems are U251 CNS; SK-MEL-2 melanoma; HOP-62 NSCLC; UO-31 renal; M14 melanoma; K-562 leukemia; RPMI-8226 leukemia; ACHN renal; MDA-N; SNB-19 CNS.
Common to all, as to assay: growth of human tumour cells (NCI), 48 h

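Dose response: 5 concentrations. Exposure: 48 h. Format: 96-well plates. Endpoint: linear interpolation; highest concentration if not reached. TGI: concentration producing complete growth inhibition.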 Bounds are passed on as bounds.

In the case of `C=C1C[C@]23CC[C@@H]4C(CO)(CO)CC(=O)C[C@]4(C)[C@@H]2C(O)C[C@H]1C3` (stereo not given in full), the TGI with U251 CNS, in the test with SK-MEL-2 melanoma, in the test on HOP-62 NSCLC, with UO-31 renal, in the test with M14 melanoma and with K-562 leukemia was > 100 µM throughout. The TGI with RPMI-8226 leukemia, in the test on ACHN renal, in the test with MDA-N and with SNB-19 CNS was > 100 µM in each case.

Take `Clc1cccc(Cl)c1C1ON=C(c2ccccc2)N1C12CC3CC(CC(C3)C1)C2` (stereo not given): the TGI was > 100 µM with U251 CNS; 71 µM in the test on SK-MEL-2 melanoma; > 100 µM with HOP-62 NSCLC; > 100 µM in the test on UO-31 renal; > 100 µM with M14 melanoma; 44.7 µM with K-562 leukemia. Besides, the TGI in the test on RPMI-8226 leukemia is 47.8 µM; in the test on ACHN renal it was > 100 µM; in the test on MDA-N, > 100 µM; in the test with SNB-19 CNS, > 100 µM.

Turning to `CC(CN(C)C)C(O)(c1ccccc1)c1ccccc1` (stereo not given), the TGI with U251 CNS, with SK-MEL-2 melanoma, with HOP-62 NSCLC, with UO-31 renal, in the test with M14 melanoma and in the test on K-562 leukemia was > 100 µM in each case. Further, the TGI with RPMI-8226 leukemia, in the test with ACHN renal, in the test on MDA-N and with SNB-19 CNS was > 100 µM throughout.
